The test system of one experiment is Lactobacillus sp. Briefly: Prebiotic activity with Lactobacillus sp. culture (total viable count, pH, optical density after 24 hours incubation). It is filed as cell-based. On the procedure: (§1) Polyvinyl Alcohol (PVA)/Inulin nanofibers are manufactured using electrospinning technique and tested for their prebiotic activity with Lactobacillus sp. and antibacterial activity with E. coli and S. aureus. After characterization and cross-linking of the produced PVA/Inulin Electrospun composite nanofibers (CNF), they were tested for their prebiotic activity with Lactobacillus sp. by viable count, optical density, pH and growth curve, and antibacterial activity with E. coli and S. aureus, by the cork-borer method, measuring the inhibition zone and the inhibition curve.
FIGS. 2A-C show according to an exemplary embodiment of the invention in FIG. 2A Total viable count, FIG. 2B pH, and FIG. 2C Optical density of Lactobacillus sp. culture containing PVA electrospun Nanofibers, inulin solution, PVA/Inulin electrospun CNFs, and water after 24 hours of incubation.
Prebiotic activity was carried out using Lactobacillus sp. to assess the growth activity by calculating the i) total viable counts, ii) pH, iii) optical density (OD), and iv) growth curve.
The pH and the OD of the culture inoculated with the tested material were measured before incubation and after 24 hours incubation. PVA/Inulin electrospun CNFs solution decreased the pH to 5.7 compared to 6.3 for the control.

The subject of the next experiment is E. coli. The experiment is described as follows: Antibacterial activity, cork-borer method, inhibition zone with E. coli. It is filed as cell-based. The protocol:
as §1
(§2) FIGS. 4A-B show according to an exemplary embodiment of the invention in FIG. 4A an inhibition zone of PVA electrospun Nanofibers, inulin solution, PVA/Inulin electrospun CNFs, antibiotic and water with E. coli, in FIG. 4B an inhibition zone of PVA electrospun Nanofibers, inulin solution, PVA/Inulin electrospun CNFs, antibiotic and water with S. aureus.

For another experiment, the system named is S. aureus. The experiment is described as follows: Antibacterial activity, cork-borer method, inhibition zone with S. aureus. Format: cell-based. The protocol: as §1, §2
For experiment [1], the system named is Bifidobacterium bifidum culture. The settings on record: inulin extracted from artichoke; cited from earlier work.
The subject of experiment [2] is bifidobacteria and lactobacillus. Conditions: in vitro; cited from earlier work.
For another experiment, the system named is gut bifidobacteria. The settings on record: IBS patients; cited from earlier work.

On to inulin [inulin solution], for which the “pH of the culture” value with Lactobacillus sp. (after 24 hours incubation, control 6.3) came out at 6.2. Moreover, the “lactobacillus growth (total viable count)” value in the experiment with Lactobacillus sp. (after 24 hours of incubation) is on record as 2.9×10^3 cfu/mL. In addition, the inhibition zone result with E. coli and in the experiment with S. aureus was “didn't show any visible zone of inhibition” throughout. In experiment [1], the “growth of B. bifidum” value is listed as “increased the growth”. The prebiotic effectiveness result in experiment [2] was “clear prebiotic effectiveness”.
Take oligofructose [oligofructose (OF)]: the prebiotic effectiveness entry in experiment [2] is “clear prebiotic effectiveness”.
Take galactooligosaccharides: the “effectiveness as a prebiotic” value in the experiment with gut bifidobacteria was “effective as a prebiotic”.

Values taken from patent US20180305524A1, “Inulin Nanofibers” (The American University in Cairo, priority 2014, published 2018).
